Reference: US4118561A, “7-(Substituted)-7H-pyrrolo[3,2-f]quinazoline-1,3-diamines” (priority 1977, dated 1978)
Values after ≈ are worked out from the molar mass of the structure shown. Like-named read-outs stand apart in the source and are kept apart here.

What was measured:
N. catarrhalis 8193 = assay: In vitro antibacterial activity (MIC), N. catarrhalis 8193; details: 18 h
S. aureus 53-180 = assay: In vitro antibacterial activity (MIC), S. aureus 53-180; details: Staphylococcus aureus, 53180, 18 h
P. vulgaris 6896 = assay: In vitro antibacterial activity (MIC), P. vulgaris 6896; details: Proteus vulgaris, 6896, 18 h
S. aureus Smith = assay: In vitro antibacterial activity (MIC), S. aureus Smith; details: Staphylococcus aureus, 18 h
[1] = Antimalarial blood schizonticidal test in mice; assay type: in vivo, Plasmodium berghei (infected ICR/HA Swiss mice); design: ΔMST (increase in mean survival time): unit: days; details: mouse, in vivo, sc, single dose, read-out: Highest Non-Lethal Dose
Summary of the method: (§1)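 ICR/HA Swiss mice (18–22 g) infected i.p. with 4 × 10^7 P. berghei KBG 173-parasitized cells; single subcutaneous dose in peanut oil at 72 h post-infection, graded dosages. Survival followed 60 days; 60-day survivors counted cured, deaths before day 6 counted toxic; mean survival time compared with untreated controls.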

[2] = system: Plasmodium berghei KBG 173; assay: Antimalarial blood schizonticidal test in mice; assay type: in vivo, Plasmodium berghei (infected ICR/HA Swiss mice); design: ΔMST (increase in mean survival time): unit: days; details: for ED100 / minimal effective dose: Plasmodium berghei, sc; for ED100: read-out: Lowest Dose Curing All Mice; for minimal effective dose: read-out: Min. Curing Dose; for Cure/Treat at Min. Curing Dose: at the Min. Curing Dose
Summary of the method: as §1

S. paratyphi 11737 = assay: In vitro antibacterial activity (MIC), S. paratyphi 11737; assay type: cell-based; details: Salmonella enterica, 18 h
[3] = system: lymphocytic leukemia P-388; assay: Activity in mice against lymphocytic leukemia P-388; assay type: in vivo; details: Mus musculus, P388, ip, read-out: T/C
K. pneumoniae 10031 = assay: In vitro antibacterial activity (MIC), K. pneumoniae 10031; details: Klebsiella pneumoniae, 10031, 18 h
E. coli 9637 = assay: In vitro antibacterial activity (MIC), E. coli 9637; details: Escherichia coli, 9637, 18 h
Proteus mirabilis 190 = assay: In vivo antibacterial synergism (mouse), Proteus mirabilis 190; design: species or system Proteus mirabilis (infected mice, CD-1); details: mice, p.o.; for ED50: Proteus mirabilis, 190, po, 336 h
Method: (§2) The test agents are weighed, suspended in 0.5% aqueous carboxymethyl cellulose, homogenized (glass tissue grinder) and diluted according to the design of the experiment. Mice (male, 18±1 g., CD-1 strain) are pre-weighed, pooled, infected at random intraperitoneally with a 0.5 ml. standardized suspension (LD95 ±5%) of the bacterial organism in 5% gastric mucin and treated at random with single doses of the test agents either at the time of infection or six hours after infecting. The treated groups consist of ten mice per dosage level. Deaths are recorded daily for 14 days and the PD50 (mice are treated at time of infection) and CD50 (mice are treated six hours after infecting) values are calculated by the method of Reed and Muench [Amer. J. Hyg., 27, 493 (1938)].

bacterial infections = assay: Synergism with sulfamethoxazole against bacterial infections in mice, oral; assay type: in vivo
Method: The invention also provides compounds which will potentiate the antibacterial effects of sulfa drugs.
as §2

Proteus mirabilis 3 = assay: In vivo antibacterial synergism (mouse), Proteus mirabilis 3; design: species or system Proteus mirabilis (infected mice, CD-1); details: Proteus mirabilis, 3, po, 336 h; mice, p.o., treated 0 hours after infecting; read-out: PD50 (agent alone)
Method: as §2

Escherichia coli W-102 = assay: In vivo antibacterial synergism (mouse), Escherichia coli W-102; design: species or system Escherichia coli (infected mice, CD-1); details: Escherichia coli, W102, po, 336 h; mice, p.o., treated 0 hours after infecting; read-out: PD50 (agent alone)
Method: as §2

Proteus vulgaris 347 = assay: In vivo antibacterial synergism (mouse), Proteus vulgaris 347; design: species or system Proteus vulgaris (infected mice, CD-1); details: Proteus vulgaris, 347, po, 336 h, mice, p.o.
Method: as §2

[4] = infected mice, highest dose with no deaths for any reason
[5] = 1440 h, s.c., single dose, 60-day survivors
[6] = alive on day 14 considered cured, no 60-day data
[7] = 336 h, s.c., single dose, alive on day 14 considered cured, no 60-day data
[8] = s.c., alive on day 14 considered cured
[9] = treated 0 hours after infecting, read-out: PD50 (agent alone)
[10] = treated 6 hours after infecting, read-out: CD50 (agent alone)

Cc1ccc(Cn2ccc3c4c(N)nc(N)nc4ccc32)cc1 [Example 21]
MIC (N. catarrhalis 8193): 0.0152 µg/mL (≈ 0.0501 µM)
MIC (S. aureus 53-180): 0.488 µg/mL (≈ 1.61 µM)
MIC (P. vulgaris 6896): 1.95 µg/mL (≈ 6.43 µM)
MIC (S. aureus Smith): 0.976 µg/mL (≈ 3.22 µM)
MTD [1, 4]: 160 mg/kg
ED100 [2, 5]: 20 mg/kg
minimal effective dose [2, 5]: 10 mg/kg
Cure/Treat at Min. Curing Dose ([2]; s.c., 60-day survivors): 2/5
ΔMST (increase in mean survival time) ([2]; s.c., dose 5 mg. per kg.): 7.5
MIC (S. paratyphi 11737): 1.95 µg/mL (≈ 6.43 µM)
response vs control in vivo at 10 mg/kg [3]: 138%
MIC (K. pneumoniae 10031): 0.122 µg/mL (≈ 0.402 µM)
MIC (E. coli 9637): 0.976 µg/mL (≈ 3.22 µM)

Cc1ccc(Cn2ccc3c4c(N)nc(N)nc4ccc32)cc1C [Example 25]
MIC (N. catarrhalis 8193): 0.122 µg/mL (≈ 0.384 µM)
MIC (S. aureus 53-180): 0.976 µg/mL (≈ 3.08 µM)
MIC (P. vulgaris 6896): 62.5 µg/mL (≈ 197 µM)
MIC (S. aureus Smith): 1.95 µg/mL (≈ 6.14 µM)
MTD [1, 6]: 80 mg/kg
ED100 [2, 7]: 10 mg/kg
minimal effective dose [2, 7]: 5 mg/kg
Cure/Treat at Min. Curing Dose [2, 8]: 2/5
ΔMST (increase in mean survival time) ([2]; s.c., dose 2.5 mg. per kg., alive on day 14 considered cured, no 60-day data): 6.5
MIC (S. paratyphi 11737): 31.3 µg/mL (≈ 98.6 µM)
response vs control in vivo at 10 mg/kg ([3]; mice, I.P., 10 mg/kg): 139%
MIC (K. pneumoniae 10031): 0.488 µg/mL (≈ 1.54 µM)
MIC (E. coli 9637): 1.95 µg/mL (≈ 6.14 µM)

COc1ccc(Cn2ccc3c4c(N)nc(N)nc4ccc32)cc1OC [Example 37]
MIC (N. catarrhalis 8193): 0.0152 µg/mL (≈ 0.0435 µM)
MIC (S. aureus 53-180): 0.122 µg/mL (≈ 0.349 µM)
MIC (P. vulgaris 6896): 1.95 µg/mL (≈ 5.58 µM)
MIC (S. aureus Smith): 0.244 µg/mL (≈ 0.698 µM)
MTD [1, 4]: 80 mg/kg
ED100 [2, 5]: 20 mg/kg
minimal effective dose [2, 5]: 10 mg/kg
Cure/Treat at Min. Curing Dose ([2]; s.c., 60-day survivors): 1/5
ΔMST (increase in mean survival time) ([2]; s.c., dose 2.5 mg. per kg.): 6.9
MIC (S. paratyphi 11737): 1.95 µg/mL (≈ 5.58 µM)
response vs control in vivo at 10 mg/kg ([3]; mice, I.P., 10 mg/kg): 174%
MIC (K. pneumoniae 10031): 0.061 µg/mL (≈ 0.175 µM)
MIC (E. coli 9637): 0.488 µg/mL (≈ 1.4 µM)

COc1cc(Cn2ccc3c4c(N)nc(N)nc4ccc32)cc(OC)c1OC [Example 39]
MIC (N. catarrhalis 8193): 0.0152 µg/mL (≈ 0.0401 µM)
MIC (S. aureus 53-180): 0.061 µg/mL (≈ 0.161 µM)
MIC (P. vulgaris 6896): 7.81 µg/mL (≈ 20.6 µM)
MIC (S. aureus Smith): 0.122 µg/mL (≈ 0.322 µM)
MTD [1, 4]: 160 mg/kg
ED100 ([2]; 1440 h): 160 mg/kg
minimal effective dose ([2]; 1440 h): 40 mg/kg
Cure/Treat at Min. Curing Dose ([2]; s.c., 60-day survivors): 2/5
ΔMST (increase in mean survival time) ([2]; s.c., dose 20 mg. per kg.): 7.1
MIC (S. paratyphi 11737): 3.9 µg/mL (≈ 10.3 µM)
response vs control in vivo at 10 mg/kg [3]: 163%
MIC (K. pneumoniae 10031): 0.122 µg/mL (≈ 0.322 µM)
MIC (E. coli 9637): 0.976 µg/mL (≈ 2.57 µM)

Nc1nc(N)c2c(ccc3c2ccn3Cc2ccsc2)n1 [Example 41]
MIC (N. catarrhalis 8193): 0.0152 µg/mL (≈ 0.0515 µM)
MIC (S. aureus 53-180): 0.976 µg/mL (≈ 3.3 µM)
MIC (P. vulgaris 6896): 1.95 µg/mL (≈ 6.6 µM)
MIC (S. aureus Smith): 0.976 µg/mL (≈ 3.3 µM)
MTD [1, 6]: 320 mg/kg
ED100 [2, 7]: 160 mg/kg
minimal effective dose [2, 7]: 20 mg/kg
Cure/Treat at Min. Curing Dose [2, 8]: 3/5
MIC (S. paratyphi 11737): 0.976 µg/mL (≈ 3.3 µM)
response vs control in vivo at 10 mg/kg ([3]; mice, I.P., 10 mg/kg): 147%
MIC (K. pneumoniae 10031): 0.061 µg/mL (≈ 0.207 µM)
MIC (E. coli 9637): 0.244 µg/mL (≈ 0.826 µM)

Nc1nc(N)c2c(ccc3c2ccn3Cc2ccccn2)n1 [Example 43]
MIC (N. catarrhalis 8193): < 0.0009 µg/mL
MIC (S. aureus 53-180): 0.488 µg/mL (≈ 1.68 µM)
MIC (P. vulgaris 6896): 0.244 µg/mL (≈ 0.84 µM)
MIC (S. aureus Smith): 0.976 µg/mL (≈ 3.36 µM)
MTD [1, 4]: 80 mg/kg
ED100 [2, 5]: 80 mg/kg
minimal effective dose [2, 5]: 20 mg/kg
Cure/Treat at Min. Curing Dose ([2]; s.c., 60-day survivors): 2/5
ΔMST (increase in mean survival time) ([2]; s.c., dose 20 mg. per kg.): 11.6
MIC (S. paratyphi 11737): 0.244 µg/mL (≈ 0.84 µM)
response vs control in vivo at 20 mg/kg [3]: 146%
MIC (K. pneumoniae 10031): 0.061 µg/mL (≈ 0.21 µM)
MIC (E. coli 9637): 0.488 µg/mL (≈ 1.68 µM)

Nc1nc(N)c2c(ccc3c2ccn3Cc2ccc3ccccc3n2)n1 [Example 50]
MIC (N. catarrhalis 8193): 0.0038 µg/mL (≈ 0.0112 µM)
MIC (S. aureus 53-180): 0.488 µg/mL (≈ 1.43 µM)
MIC (P. vulgaris 6896): 7.81 µg/mL (≈ 22.9 µM)
MIC (S. aureus Smith): 0.976 µg/mL (≈ 2.87 µM)
MTD [1, 4]: 160 mg/kg
ED100 [2, 5]: 5 mg/kg
minimal effective dose [2, 5]: 1.25 mg/kg
Cure/Treat at Min. Curing Dose ([2]; s.c., 60-day survivors): 2/5
ΔMST (increase in mean survival time) ([2]; s.c., dose 1.25 mg. per kg.): 6.9
MIC (S. paratyphi 11737): 7.81 µg/mL (≈ 22.9 µM)
response vs control in vivo at 10 mg/kg ([3]; mice, I.P., 10 mg/kg): 145%
MIC (K. pneumoniae 10031): 0.122 µg/mL (≈ 0.358 µM)
MIC (E. coli 9637): 7.81 µg/mL (≈ 22.9 µM)

Nc1cccc(Cn2ccc3c4c(N)nc(N)nc4ccc32)c1 [Example 62, 7-[(3-Aminophenyl)methyl]-7H-pyrrolo[3,2-f]quinazoline-1,3-diamine]
MIC (N. catarrhalis 8193): 0.061 µg/mL (≈ 0.2 µM)
MIC (S. aureus 53-180): 0.244 µg/mL (≈ 0.802 µM)
MIC (P. vulgaris 6896): 1.95 µg/mL (≈ 6.41 µM)
MIC (S. aureus Smith): 0.488 µg/mL (≈ 1.6 µM)
MTD [1, 4]: 80 mg/kg
ED100 [2, 5]: 20 mg/kg
minimal effective dose [2, 5]: 5 mg/kg
Cure/Treat at Min. Curing Dose ([2]; s.c., 60-day survivors): 3/5
ΔMST (increase in mean survival time) ([2]; s.c., dose 1.25 mg. per kg.): 7.8
MIC (S. paratyphi 11737): 0.976 µg/mL (≈ 3.21 µM)
response vs control in vivo at 10 mg/kg ([3]; mice, I.P., 10 mg/kg): 165%
MIC (K. pneumoniae 10031): 0.122 µg/mL (≈ 0.401 µM)
MIC (E. coli 9637): 0.244 µg/mL (≈ 0.802 µM)

Cc1cc2c3c(N)nc(N)nc3ccc2n1Cc1ccccc1 [Example 100, 8-methyl-7-(phenylmethyl)-7H-pyrrolo[3,2-f]-quinazoline-1,3-diamine]
MIC (N. catarrhalis 8193): 0.122 µg/mL (≈ 0.402 µM)
MIC (S. aureus 53-180): 0.976 µg/mL (≈ 3.22 µM)
MIC (P. vulgaris 6896): 15.6 µg/mL (≈ 51.4 µM)
MIC (S. aureus Smith): 1.95 µg/mL (≈ 6.43 µM)
ED50 (Proteus mirabilis 190; [9]): 36.6 mg/kg
PD50 SM/Cpd. (compound part) (Proteus mirabilis 190; 0 hours, with SM 1.56 mg. per kg., 20160 min): 3.11 mg. per kg.
MIC (S. paratyphi 11737): 3.9 µg/mL (≈ 12.9 µM)
synergistic effect with sulfamethoxazole (bacterial infections): synergistic effect
MIC (K. pneumoniae 10031): 0.244 µg/mL (≈ 0.804 µM)
MIC (E. coli 9637): 0.488 µg/mL (≈ 1.61 µM)

Cc1cc(NS(=O)(=O)c2ccc(N)cc2)no1 [SM, sulfomethoxazole, reference compound]
ED50 (Proteus mirabilis 190; [10]): 14 mg/kg
ED50 (Proteus mirabilis 3): 9.9 mg/kg
ED50 (Escherichia coli W-102): 95 mg/kg
ED50 (Proteus vulgaris 347; [9]): 43.2 mg/kg
ED50 (Proteus vulgaris 347; [10]): 60 mg/kg
